Results: ChEMBL document CHEMBL3046266, “Synthesis of curcumin and ethylcurcumin bioconjugates as potential antitumor agents” (Med Chem Res, 2012)
Calls of active or inactive are those of the source. No cut-off for these calls is given here.

Key:
BT-549 [1] = assay: Cytotoxicity against Homo sapiens (human) BT549 cells by neutral red staining; format: functional, cell-based
SK-MEL [2] = assay: Cytotoxicity against Homo sapiens (human) SK-MEL cells by neutral red staining; format: functional, cell-based
SK-OV-3 [3] = assay: Cytotoxicity against Homo sapiens (human) SKOV3 cells up to 25 uM by neutral red staining; format: functional, cell-based
LLC-PK1 [4] = assay: Cytotoxicity against Sus scrofa (pig) LLC-PK1 cells by neutral red staining; format: cell-based
[5] = molecular target: T1, DNA topoisomerase 1 (Homo sapiens) (UniProt P11387); assay: Inhibition of Homo sapiens (human) topoisomerase 1 assessed as production of nicked DNA up to 25 uM by agarose gel electrophoresis
T1 sequence (whole entry): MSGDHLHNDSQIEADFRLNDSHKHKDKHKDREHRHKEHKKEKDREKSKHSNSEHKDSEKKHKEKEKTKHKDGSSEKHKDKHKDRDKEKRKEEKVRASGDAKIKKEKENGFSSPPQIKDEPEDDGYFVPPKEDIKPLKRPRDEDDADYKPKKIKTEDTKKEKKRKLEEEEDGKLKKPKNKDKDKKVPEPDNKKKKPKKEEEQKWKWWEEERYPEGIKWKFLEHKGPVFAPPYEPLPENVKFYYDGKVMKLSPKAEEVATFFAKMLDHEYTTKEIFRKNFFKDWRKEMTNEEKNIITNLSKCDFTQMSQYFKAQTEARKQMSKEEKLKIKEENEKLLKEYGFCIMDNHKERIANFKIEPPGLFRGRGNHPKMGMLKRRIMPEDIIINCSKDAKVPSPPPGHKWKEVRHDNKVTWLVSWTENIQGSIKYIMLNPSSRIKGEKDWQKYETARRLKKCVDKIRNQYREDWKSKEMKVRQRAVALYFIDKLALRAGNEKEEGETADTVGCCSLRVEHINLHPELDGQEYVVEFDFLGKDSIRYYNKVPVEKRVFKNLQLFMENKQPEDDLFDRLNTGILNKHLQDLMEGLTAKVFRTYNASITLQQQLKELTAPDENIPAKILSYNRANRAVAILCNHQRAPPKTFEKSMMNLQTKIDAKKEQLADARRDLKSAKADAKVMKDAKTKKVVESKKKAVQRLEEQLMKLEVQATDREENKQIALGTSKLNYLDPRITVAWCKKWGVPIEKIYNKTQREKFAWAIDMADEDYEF

Vero [6] = assay: Cytotoxicity against Chlorocebus aethiops (African green monkey) Vero cells by neutral red staining; format: cell-based; conditions: chlorocebus sabaeus
KB [7] = assay: Cytotoxicity against Homo sapiens (human) KB cells by neutral red staining; format: functional, cell-based
[8] = molecular target: T1, DNA topoisomerase 1 (Homo sapiens); assay: Inhibition of Homo sapiens (human) topoisomerase 1 assessed as relaxation of supercoiled DNA up to 25 uM by agarose gel electrophoresis
[9] = molecular target: T2, DNA topoisomerase 2-alpha (Homo sapiens, UniProt P11388); assay: Inhibition of Homo sapiens (human) topoisomerase 2 assessed as decatenation of KDNA by agarose gel electrophoresis
T2 sequence (P11388 whole entry): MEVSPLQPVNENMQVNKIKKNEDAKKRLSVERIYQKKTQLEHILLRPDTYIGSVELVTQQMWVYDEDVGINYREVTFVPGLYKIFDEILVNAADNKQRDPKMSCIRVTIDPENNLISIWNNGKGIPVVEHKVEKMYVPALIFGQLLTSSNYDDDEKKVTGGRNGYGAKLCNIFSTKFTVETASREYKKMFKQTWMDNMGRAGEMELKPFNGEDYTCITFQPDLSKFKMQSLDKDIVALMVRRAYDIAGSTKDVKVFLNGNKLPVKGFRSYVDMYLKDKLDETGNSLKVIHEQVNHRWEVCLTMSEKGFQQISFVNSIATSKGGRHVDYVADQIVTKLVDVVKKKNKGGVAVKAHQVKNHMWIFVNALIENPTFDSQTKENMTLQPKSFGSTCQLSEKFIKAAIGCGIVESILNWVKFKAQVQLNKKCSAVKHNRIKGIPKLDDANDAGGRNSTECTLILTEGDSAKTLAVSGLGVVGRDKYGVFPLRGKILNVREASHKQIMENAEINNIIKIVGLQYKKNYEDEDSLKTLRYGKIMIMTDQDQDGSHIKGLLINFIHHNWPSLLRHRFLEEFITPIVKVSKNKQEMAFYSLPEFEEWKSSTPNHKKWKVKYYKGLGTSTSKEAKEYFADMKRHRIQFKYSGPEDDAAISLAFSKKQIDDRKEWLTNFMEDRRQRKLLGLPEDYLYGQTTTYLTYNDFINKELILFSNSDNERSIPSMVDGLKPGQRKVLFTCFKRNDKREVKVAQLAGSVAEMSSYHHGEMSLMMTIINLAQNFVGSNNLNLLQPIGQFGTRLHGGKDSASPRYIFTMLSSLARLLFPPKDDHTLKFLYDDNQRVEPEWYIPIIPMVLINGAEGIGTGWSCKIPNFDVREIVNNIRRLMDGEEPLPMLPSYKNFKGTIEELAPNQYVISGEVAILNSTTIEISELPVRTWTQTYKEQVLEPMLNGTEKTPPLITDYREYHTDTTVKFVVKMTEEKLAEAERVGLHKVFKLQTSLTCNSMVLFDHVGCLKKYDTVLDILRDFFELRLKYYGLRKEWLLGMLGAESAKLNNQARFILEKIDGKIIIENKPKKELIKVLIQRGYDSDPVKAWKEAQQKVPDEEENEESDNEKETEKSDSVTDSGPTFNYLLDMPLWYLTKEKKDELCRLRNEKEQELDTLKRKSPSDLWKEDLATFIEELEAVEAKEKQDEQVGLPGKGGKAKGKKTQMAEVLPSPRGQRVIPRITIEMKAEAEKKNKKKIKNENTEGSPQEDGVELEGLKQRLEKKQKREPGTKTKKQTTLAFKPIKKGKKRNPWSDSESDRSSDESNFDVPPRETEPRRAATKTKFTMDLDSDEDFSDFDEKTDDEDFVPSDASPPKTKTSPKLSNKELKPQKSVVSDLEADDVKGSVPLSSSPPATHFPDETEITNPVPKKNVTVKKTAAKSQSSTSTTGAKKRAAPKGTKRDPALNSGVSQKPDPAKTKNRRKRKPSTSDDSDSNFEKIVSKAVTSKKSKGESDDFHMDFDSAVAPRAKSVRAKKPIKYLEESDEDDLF

SK-OV-3 [10] = assay: Cytotoxicity against Homo sapiens (human) SKOV3 cells by neutral red staining; format: functional, cell-based
LLC-PK1 [11] = assay: Cytotoxicity against Sus scrofa (pig) LLC-PK1 cells up to 25 uM by neutral red staining; format: cell-based
Vero [12] = assay: Cytotoxicity against Chlorocebus aethiops (African green monkey) Vero cells up to 25 uM by neutral red staining; format: cell-based; conditions: chlorocebus sabaeus
KB [13] = assay: Cytotoxicity against Homo sapiens (human) KB cells up to 25 uM by neutral red staining; format: functional, cell-based
SK-MEL [14] = assay: Cytotoxicity against Homo sapiens (human) SK-MEL cells up to 25 uM by neutral red staining; format: functional, cell-based
[15] = molecular target: T2, DNA topoisomerase 2-alpha; assay: Inhibition of Homo sapiens (human) topoisomerase 2 assessed as decatenation of KDNA up to 25 uM by agarose gel electrophoresis
BT-549 [16] = assay: Cytotoxicity against Homo sapiens (human) BT549 cells up to 25 uM by neutral red staining; format: functional, cell-based

SMILES	IC50 (BT-549 [1]) [µM]	IC50 (SK-MEL [2]) [µM]	Activity (SK-OV-3 [3])	IC50 (LLC-PK1 [4]) [µM]	inhibition [5]	IC50 (Vero [6]) [µM]	IC50 (KB [7]) [µM]	inhibition [8]	IC50 [9] [µM]	IC50 (SK-OV-3 [10]) [µM]	Activity (LLC-PK1 [11])	Activity (Vero [12])	Activity (KB [13])	Activity (SK-MEL [14])	inhibition [15]	Activity (BT-549 [16])
COc1cc(/C=C/C(=O)CC(=O)/C=C/c2ccc(OC(=O)CNc3nnc(C)s3)c(OC)c2)ccc1OC(=O)CNc1nnc(C)s1	8.75	7.5	inactive	22.5	inactive	23	22.5	inactive	15	–	–	–	–	–	–	–
CCOc1cc(/C=C/C(=O)CC(=O)/C=C/c2ccc(OC(=O)CN(CCCl)CCCl)c(OCC)c2)ccc1OC(=O)CN(CCCl)CCCl	11	14.5	–	13.8	inactive	15	21.5	inactive	3.4	13.5	–	–	–	–	–	–
COc1cc(/C=C/C(=O)CC(=O)/C=C/c2ccc(OC(=O)CN(CCCl)CCCl)c(OC)c2)ccc1OC(=O)CN(CCCl)CCCl	6.75	7	inactive	20	inactive	> 25	19.5	inactive	5	–	–	–	–	–	–	–
CCOc1cc(/C=C/C(=O)CC(=O)/C=C/c2ccc(OC(=O)CNCCCl)c(OCC)c2)ccc1OC(=O)CNCCCl	9	13.3	inactive	6.8	inactive	11	12.5	inactive	4.1	–	–	–	–	–	–	–
CCOc1cc(/C=C/C(=O)CC(=O)/C=C/c2ccc(OC(=O)CNCCN(CC)CC)c(OCC)c2)ccc1OC(=O)CNCCN(CC)CC	10	11.5	–	5.8	inactive	5	11.5	inactive	10	14.8	–	–	–	–	–	–
CCN(CC)CCNCC(=O)Oc1ccc(/C=C/C(=O)CC(=O)/C=C/c2ccc(OC(=O)CNCCN(CC)CC)c(OC)c2)cc1OC	16.3	8.5	–	–	inactive	19.5	24	inactive	3	15.5	Non-toxic	–	–	–	–	–
COc1cc(/C=C/C(=O)CC(=O)/C=C/c2ccc(OC(=O)CNc3ccc(S(N)(=O)=O)cc3)c(OC)c2)ccc1OC(=O)CNc1ccc(S(N)(=O)=O)cc1	10.5	18.8	–	15.8	inactive	11	14	inactive	3	22.5	–	–	–	–	–	–
CCOc1cc(/C=C/C(=O)CC(=O)/C=C/c2ccc(OC(=O)CCNCCN(C)C)c(OCC)c2)ccc1OC(=O)CCNCCN(C)C	–	–	inactive	–	inactive	–	–	inactive	–	–	Non-toxic	Non-toxic	inactive	inactive	inactive	inactive
CCOc1cc(/C=C/C(=O)CC(=O)/C=C/c2ccc(OC(=O)CNc3nnc(C)s3)c(OCC)c2)ccc1OC(=O)CNc1nnc(C)s1	12	12.5	–	13	inactive	11.5	11.5	inactive	2.7	15.8	–	–	–	–	–	–
COc1cc(/C=C/C(=O)CC(=O)/C=C/c2ccc(OC(=O)CNCCN(C)C)c(OC)c2)ccc1OC(=O)CNCCN(C)C	20	15	–	–	inactive	–	–	inactive	16	22.5	Non-toxic	Non-toxic	inactive	–	–	–
COc1cc(/C=C/C(=O)CC(=O)/C=C/c2ccc(OC(=O)CCNCCCl)c(OC)c2)ccc1OC(=O)CCNCCCl	11	15	–	16.8	inactive	12.5	11.5	inactive	2.9	23.8	–	–	–	–	–	–
CCOc1cc(/C=C/C(=O)CC(=O)/C=C/c2ccc(OC(=O)CNc3nc4ccc(OC)cc4s3)c(OCC)c2)ccc1OC(=O)CNc1nc2ccc(OC)cc2s1	–	4.75	–	–	inactive	–	–	inactive	12	2.8	Non-toxic	Non-toxic	inactive	–	–	inactive
COc1cc(/C=C/C(=O)CC(=O)/C=C/c2ccc(OC(=O)CCNc3nnc(C)s3)c(OC)c2)ccc1OC(=O)CCNc1nnc(C)s1	4.25	7.5	inactive	15.5	inactive	15	16.3	inactive	3	–	–	–	–	–	–	–
COc1cccc2c1C(=O)c1c(O)c3c(c(O)c1C2=O)C[C@@](O)(C(=O)CO)C[C@@H]3O[C@H]1C[C@H](N)[C@H](O)[C@H](C)O1 [DOXORUBICIN]	< 0.55	0.55	–	0.75	–	> 5	< 0.55	–	–	0.8	–	–	–	–	–	–
